Assay results reported in BigSolDB 2.1.

CCOC(=O)[C@@H](C)Oc1ccc(Oc2nc3ccc(Cl)cc3o2)cc1
solubility (mole fraction)
Conditions	278.15 K	283.15 K	288.15 K	293.15 K	298.15 K	303.15 K	308.15 K	313.15 K	318.15 K	323.15 K
in ethanol	0.000972	0.00121	0.0015	0.00186	0.00224	0.00266	0.00314	0.00376	0.00446	0.00534
in water	1.93e-06	2.91e-06	4.12e-06	5.68e-06	7.36e-06	9.61e-06	1.24e-05	1.59e-05	2.03e-05	2.57e-05
